Source: paper PMC9636434, “Discovery of small molecule agonists of the Relaxin Family Peptide Receptor 2” (Communications Biology, 2022)
“And” between values parts separate entries of the source, which are not always exact repeats. Equal entries are not always repeated. Where two headings read alike, the source gives them in different places.

Key:
[1] = Pharmacokinetic study, 3 mg/kg IV, 10 mg/kg PO and 10 mg/kg PO QD*3, plasma, liver and bone; format: in vivo, mouse; conditions: female, mouse
Protocol: The concentration of compound in plasma, liver, and long bones was detected using liquid chromatography tandem mass spectrometry (LC-MS/MS). Samples were collected after a single intraperitoneal (IP) administration at 30 mg/kg, a single intravenous (IV) administration at 3 mg/kg, a single oral (PO) administration at 10 mg/kg, and a daily PO administration for 3 consecutive days at 10 mg/kg. The compound was formulated in 75% PEG300 + 25% of 40% aq. HPBCD for IV and PO administration and in 60% Phosal + 40% PEG300 for IP administration. All tissue samples were homogenized in water at a tissue weight to water volume ratio 1:3.
IV administration, one 10 mg/kg PO administration and three 10 mg/kg PO administrations (QD*3). a Plasma, b liver and c bone profiles in female mice. The actual concentration (ng/g) is the detected value (ng/mL) multiplied by 4. Drug vehicle is 25% aq. 40% HP-b-CD - 75% PEG300. 3 mice were used per time point. Results are expressed as the mean ± SEM.

human FSHR = molecular target: T1, human FSHR (Homo sapiens, UniProt P23945); experiment: HitHunter cAMP XS+ assay, cAMP Hunter cell line FSHR; format: cell-based; conditions: for RLU: replicates (1),(2)
T1 sequence (P23945 18-695): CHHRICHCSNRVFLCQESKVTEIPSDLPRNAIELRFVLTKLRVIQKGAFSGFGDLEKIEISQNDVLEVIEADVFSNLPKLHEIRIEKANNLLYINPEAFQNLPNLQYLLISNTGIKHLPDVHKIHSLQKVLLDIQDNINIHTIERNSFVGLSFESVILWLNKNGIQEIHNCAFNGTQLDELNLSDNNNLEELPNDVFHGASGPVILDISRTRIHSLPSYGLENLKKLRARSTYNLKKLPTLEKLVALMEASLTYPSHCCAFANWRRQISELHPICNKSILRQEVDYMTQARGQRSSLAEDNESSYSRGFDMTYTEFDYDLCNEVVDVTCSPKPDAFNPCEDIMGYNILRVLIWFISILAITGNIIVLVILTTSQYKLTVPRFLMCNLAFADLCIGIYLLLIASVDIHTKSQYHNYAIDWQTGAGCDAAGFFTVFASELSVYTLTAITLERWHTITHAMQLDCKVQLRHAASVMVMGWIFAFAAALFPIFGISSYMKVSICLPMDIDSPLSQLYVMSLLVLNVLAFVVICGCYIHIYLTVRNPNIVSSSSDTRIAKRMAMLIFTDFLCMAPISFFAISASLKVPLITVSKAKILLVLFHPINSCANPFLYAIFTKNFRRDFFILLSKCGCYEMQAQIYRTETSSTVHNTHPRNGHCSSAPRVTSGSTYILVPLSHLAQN
Excerpt: Results are reported as raw RLU values and represent the
mean ± SEM of 2 technical replicates.

## O=C1Nc2ccc(-c3cc(C(F)(F)F)cc(C(F)(F)F)c3)cc2C(=O)N2CCN(C(=O)COc3ccc(OC(F)(F)F)cc3I)C[C@@H]12 [compound 6641]
[1]; C57BL/6J, liver, iv, 3 mg/kg, liver, IV, 0.5 h, individual animals, read-out: Liver 6641 IV concentration
  concentration at 0.5 h: 8740 ng/g
[1]; C57BL/6J, liver, iv, 3 mg/kg, liver, IV, 3 h, individual animals, read-out: Liver 6641 IV concentration
  concentration at 3 h: 1570 ng/g
[1]; C57BL/6 J, liver, iv, 3 mg/kg, liver, IV, 7 h, individual animals, read-out: Liver 6641 IV concentration
  concentration at 7 h: 474 ng/g
[1]; C57BL/6 J, liver, iv, 3 mg/kg, liver, IV, 24 h, individual animals, read-out: Liver 6641 IV concentration
  concentration at 24 h: 28 ng/g
[1]; C57BL/6 J, liver, po, 10 mg/kg, liver, PO (QD*3), 0.083 h, individual animals, read-out: Liver 6641 PO (QD*3) concentration
  concentration at 0.083 h: 44.1 ng/g
[1]; C57BL/6J, liver, po, 10 mg/kg, liver, PO (QD*3), 1 h, individual animals, read-out: Liver 6641 PO (QD*3) concentration
  concentration at 1 h: 3320 ng/g
[1]; C57BL/6J, liver, po, 10 mg/kg, liver, PO (QD*3), 3 h, individual animals, read-out: Liver 6641 PO (QD*3) concentration
  concentration at 3 h: 1900 ng/g
[1]; C57BL/6 J, liver, po, 10 mg/kg, liver, PO (QD*3), 7 h, individual animals, read-out: Liver 6641 PO (QD*3) concentration
  concentration at 7 h: 1010 ng/g
[1]; C57BL/6 J, liver, po, 10 mg/kg, liver, PO (QD*3), 24 h, individual animals, read-out: Liver 6641 PO (QD*3) concentration
  concentration at 24 h: 32.3 ng/g
[1]; C57BL/6 J, liver, po, 10 mg/kg, liver, PO, 0.083 h, individual animals, N/A: Below detection level, read-out: Liver 6641 PO concentration
  concentration at 0.083 h: 5.14 ng/g
[1]; C57BL/6 J, liver, po, 10 mg/kg, liver, PO, 0.25 h, individual animals, read-out: Liver 6641 PO concentration
  concentration at 0.25 h: 321 ng/g
[1]; C57BL/6J, liver, po, 10 mg/kg, liver, PO, 1 h, individual animals, read-out: Liver 6641 PO concentration
  concentration at 1 h: 3040 ng/g
[1]; C57BL/6J, liver, po, 10 mg/kg, liver, PO, 3 h, individual animals, read-out: Liver 6641 PO concentration
  concentration at 3 h: 1940 ng/g
[1]; C57BL/6 J, liver, po, 10 mg/kg, liver, PO, 7 h, individual animals, read-out: Liver 6641 PO concentration
  concentration at 7 h: 1210 ng/g
[1]; C57BL/6 J, liver, po, 10 mg/kg, liver, PO, 24 h, individual animals, read-out: Liver 6641 PO concentration
  concentration at 24 h: 28.5 ng/g
[1]; C57BL/6 J, liver, po, 10 mg/kg, liver, PO, 48 h, individual animals, read-out: Liver 6641 PO concentration
  concentration at 48 h: 2.88 ng/g
[1]; C57BL/6 J, plasma, iv, 3 mg/kg, IV, Time 0.083 h, individual values (1)-(3), read-out: Plasma concentration
  concentration at 0.083 h: 2030 ng/mL
[1]; C57BL/6 J, plasma, iv, 3 mg/kg, IV, Time 0.25 h, individual values (1)-(3), read-out: Plasma concentration
  concentration at 0.25 h: 1260 ng/mL
[1]; C57BL/6 J, plasma, iv, 3 mg/kg, IV, Time 0.5 h, individual values (1)-(3), read-out: Plasma concentration
  concentration at 0.5 h: 721 ng/mL
[1]; C57BL/6 J, plasma, iv, 3 mg/kg, IV, Time 1 h, individual values (1)-(3), read-out: Plasma concentration
  concentration at 1 h: 343 ng/mL
[1]; C57BL/6 J, plasma, iv, 3 mg/kg, IV, Time 3 h, individual values (1)-(3), read-out: Plasma concentration
  concentration at 3 h: 220 ng/mL
[1]; C57BL/6 J, plasma, iv, 3 mg/kg, IV, Time 7 h, individual values (1)-(3), read-out: Plasma concentration
  concentration at 7 h: 67.6 ng/mL
[1]; C57BL/6 J, plasma, iv, 3 mg/kg, IV, Time 24 h, individual values (1)-(3), read-out: Plasma concentration
  concentration at 24 h: 4.37 ng/mL
[1]; C57BL/6 J, plasma, iv, 3 mg/kg, IV, Time 48 h, individual values (1)-(3), N/A: Below detection level, read-out: Plasma concentration
  concentration at 48 h: 0.874 ng/mL
[1]; C57BL/6 J, plasma, po, 10 mg/kg, PO (QD*3), Time 0.083 h, individual values (1)-(3), read-out: Plasma concentration
  concentration at 0.083 h: 8.04 ng/mL
[1]; C57BL/6 J, plasma, po, 10 mg/kg, PO (QD*3), Time 0.25 h, individual values (1)-(3), read-out: Plasma concentration
  concentration at 0.25 h: 95.9 ng/mL
[1]; C57BL/6 J, plasma, po, 10 mg/kg, PO (QD*3), Time 1 h, individual values (1)-(3), read-out: Plasma concentration
  concentration at 1 h: 336 ng/mL
[1]; C57BL/6 J, plasma, po, 10 mg/kg, PO (QD*3), Time 3 h, individual values (1)-(3), read-out: Plasma concentration
  concentration at 3 h: 264 ng/mL
[1]; C57BL/6 J, plasma, po, 10 mg/kg, PO (QD*3), Time 7 h, individual values (1)-(3), read-out: Plasma concentration
  concentration at 7 h: 144 ng/mL
[1]; C57BL/6 J, plasma, po, 10 mg/kg, PO (QD*3), Time 24 h, individual values (1)-(3), read-out: Plasma concentration
  concentration at 24 h: 5.56 ng/mL
[1]; C57BL/6 J, plasma, po, 10 mg/kg, PO (QD*3), Time 48 h, individual values (1)-(3), N/A: Below detection level, read-out: Plasma concentration
  concentration at 48 h: 1.04 ng/mL
[1]; C57BL/6 J, plasma, po, 10 mg/kg, PO, Time 0.083 h, individual values (1)-(3), N/A: Below detection level, read-out: Plasma concentration
  concentration at 0.083 h: 1.64 ng/mL
[1]; C57BL/6 J, plasma, po, 10 mg/kg, PO, Time 0.25 h, individual values (1)-(3), read-out: Plasma concentration
  concentration at 0.25 h: 43.8 ng/mL
[1]; C57BL/6 J, plasma, po, 10 mg/kg, PO, Time 1 h, individual values (1)-(3), read-out: Plasma concentration
  concentration at 1 h: 369 ng/mL
[1]; C57BL/6 J, plasma, po, 10 mg/kg, PO, Time 3 h, individual values (1)-(3), read-out: Plasma concentration
  concentration at 3 h: 219 ng/mL
[1]; C57BL/6 J, plasma, po, 10 mg/kg, PO, Time 7 h, individual values (1)-(3), read-out: Plasma concentration
  concentration at 7 h: 134 ng/mL
[1]; C57BL/6 J, plasma, po, 10 mg/kg, PO, Time 24 h, individual values (1)-(3), read-out: Plasma concentration
  concentration at 24 h: 4.25 ng/mL
[1]; C57BL/6 J, plasma, po, 10 mg/kg, PO, Time 48 h, individual values (1)-(3), N/A: Below detection level, read-out: Plasma concentration
  concentration at 48 h: 1.39 ng/mL
Human FSHR; Hit Hunter cAMP assay
  cAMP response through FSHR: did not result in an increase of cAMP level
Human FSHR; Log [M] -4.70
  RLU: 1000 RLU and 1200 RLU
Human FSHR; Log [M] -5.18
  RLU: 1080 RLU
Human FSHR; Log [M] -5.65
  RLU: 960 RLU and 1040 RLU
Human FSHR; Log [M] -6.13
  RLU: 880 RLU and 920 RLU
Human FSHR; Log [M] -6.61
  RLU: 840 RLU and 960 RLU
Human FSHR; Log [M] -7.08
  RLU: 960 RLU and 1040 RLU
Human FSHR; Log [M] -7.56
  RLU: 1280 RLU and 720 RLU
Human FSHR; Log [M] -8.04
  RLU: 880 RLU and 960 RLU
Human FSHR; Log [M] -8.52
  RLU: 1040 RLU and 1080 RLU
Human FSHR; Log [M] -8.99
  RLU: 720 RLU and 880 RLU
